Results published in the NIST ThermoML archive (doi:10.1016/j.tca.2018.01.023).

Assay: molar heat capacity at constant pressure
Conditions: 101.33 kPa, Crystal, Small sample (50 mg) DSC

[Ca+2].[O]=[Mo](=[O])([O-])[O-] [calcium molybdate(VI)]
Conditions | molar heat capacity at constant pressure [J/K/mol]
255.5 K | 107.3
255.9 K | 107.4
256.9 K | 107.5
257.9 K | 107.6
258.9 K | 107.7
259.9 K | 107.8
260.9 K | 107.8
261.9 K | 107.9
262.9 K | 108
263.9 K | 108.2
264.9 K | 108.3
265.9 K | 108.4
266.9 K | 108.6
267.9 K | 108.8
268.9 K | 109
269.9 K | 109.2
270.9 K | 109.4
272 K | 109.6
273 K | 109.8
274 K | 110
275 K | 110.3
276 K | 110.5
277 K | 110.7
278 K | 111
279 K | 111.2
280 K | 111.5
281 K | 111.6
282 K | 111.8
283 K | 112
284 K | 112.2
285 K | 112.3
286 K | 112.5
287 K | 112.7
288 K | 112.9
289 K | 113
290.1 K | 113.2
291.1 K | 113.4
292.1 K | 113.6
293.1 K | 113.8
294.1 K | 114
295.1 K | 114.1
296.1 K | 114.3
297.1 K | 114.5
298.1 K | 114.6
298.15 K | 114.2
299.1 K | 114.8
300.1 K | 115
301.1 K | 115.1
302.1 K | 115.3
303.1 K | 115.4
304.1 K | 115.6
305.1 K | 115.7
306.1 K | 115.9
307.1 K | 116.1
308.2 K | 116.2
309.2 K | 116.4
310 K | 116.5
310.2 K | 116.5
311.2 K | 116.7
312.2 K | 116.8
313.2 K | 116.9
314.2 K | 117.1
315 K | 117.3
315.2 K | 117.3
316.2 K | 117.4
317.2 K | 117.6
317.4 K | 117.7
318.2 K | 117.8
318.4 K | 118
319.2 K | 117.9
319.4 K | 118.2
320 K | 118.1
320.2 K | 118.1
320.4 K | 118.4
321.2 K | 118.3
321.4 K | 118.5
322.2 K | 118.5
322.4 K | 118.6
323.2 K | 118.6
323.4 K | 118.8
324.2 K | 118.7
324.4 K | 118.9
325 K | 118.8
325.2 K | 118.8
325.4 K | 119
326.2 K | 119
326.4 K | 119.1
327.2 K | 119.1
327.4 K | 119.2
328.2 K | 119.2
328.4 K | 119.4
329.2 K | 119.3
329.4 K | 119.5
330 K | 119.5
330.2 K | 119.5
330.4 K | 119.6
331.3 K | 119.7
331.4 K | 119.7
332.3 K | 119.9
332.4 K | 119.8
333.3 K | 120
333.4 K | 120
334.3 K | 120.1
334.4 K | 120.1
